{"source": "patent US20180296447A1", "about": "“BIOCIDAL COMPOSITIONS AND RELATED METHODS” (Imerys Filtration Minerals, Inc., priority 2015, published 2018)", "test_system": "Streptococcus mutans UA159 (ATCC 700610)", "experiment": "Direct bacterial killing experiment, spiral plating viability", "assay_type": "cell-based", "description": "A direct bacterial killing experiment was done using spiral plating to measure the viability of the Streptococcus mutans UA159 (ATCC 700610) (S. mutans). Streptococcus mutans is facultatively anaerobic, gram-positive coccus-shaped bacterium commonly found in the human oral cavity and is a significant contributor to tooth decay.\nAll of Examples 4-6 were measured blindly without any knowledge of their composition. This was accomplished by pipetting 1 ml of the diluted sample powder particles (100 mg/ml) into 3 ml of Tryptic Soy broth containing 1% sucrose (TSBS) and 20 ul of an overnight culture of S. mutans. The inoculated suspensions were incubated for 24 hours at 37° C. in 5% CO2, diluted 1:10 and 1:1000, and spiral plated onto blood agar plates. The colonies on the plates were counted in a Colony Forming Unit (CFU) after 24 hours of incubation. Regarding controls, 0.12% chlorhexidine (CHX) was used a positive control, and sterile water was used as a negative control.", "data": [{"smiles": "[H]/N=C(\\N/C(=N/[H])NCCCCCCNC(=N)NC(=N)Nc1ccc(Cl)cc1)Nc1ccc(Cl)cc1", "note": "[CHX control, chlorhexidine]", "values": [{"measurement": "Inhibition of S. mutans in the viability assay (in words)", "setting": "24 hours incubation", "value": "significantly inhibited"}, {"measurement": "Mean (CFU/ml)", "setting": "S. mutans, 1 ml of 100 mg/ml sample powder in 3 ml TSBS, 24 hours at 37° C., 5% CO2, CHX 0.12%", "value": "1.67 × 10^2 ± 0.047 CFU/ml"}]}]}
